Test results as given in US12060385B2, “Compounds for RNA capping and uses thereof” (GUANGZHOU HENOVCOM BIOSCIENCE CO., LTD., priority 2022, dated 2024).

Key:
[1] = target: T7 RNA Polymerase (Escherichia phage T7, UniProt P00573); type: biochemical; details: 20 μL transcription system, Cap1 Analog 4 mM, 37° C. 2 to 3 hours
Method: • 1) A plasmid was linearized and the DNA template was purified. • 2) mRNA was synthesized in vitro with 51 types of capping structures of the present disclosure, or without any cap analogues. CleanCap®AG (3′OMe) (Trilink, N-7413) was applied as positive control group, uncapped mRNA was negative control group, and DNAase/RNase-Free water was a blank control group.
The system was incubated for 2 to 3 hours at 37° C. and digested by TURBO DNase for 15 min LiCl was used to precipitate mRNA for at least 30 min, or overnight, mRNA precipitates were then washed with 75% ethanol. After ethanol was quickly volatilized, mRNA was re-solubilized with RNase-Free water. • 3) The transcribed products were purified and the transcription yields were calculated.

[2] = tested on: mRNA; test: Capping efficiency of mRNA with different cap analogs by LC-MS; type: biochemical; details: LC-MS after RNase H cleavage
Method: In a PCR machine, the annealing was performed using the following gradients: • 95° C. for 5 min; 65° C. for 2 min; 55° C. for 2 min; 40° C. for 2 min; 22° C. for 2 min • 5) Pre-treatment of magnetic beads were bound with probes.
100 μL of magnetic beads were placed on a magnetic rack and the preservation solution was removed. 100 μL of 1*BW solution was added, mixed well, and placed on the magnetic rack, and the supernatant was then removed. The washing step was repeated three times. 100 μL of wash A buffer was added, mixed well, and placed on the magnetic rack, and the supernatant was then removed. The washing step was repeated three times. 100 μL of wash B buffer was added, mixed well, and placed on the magnetic rack, and the supernatant was then removed. The washing step was repeated three times. After 120 μL of sample was added, the sample and the magnetic beads solution were incubated for 30 min at room temperature, and they were gently mixed well while incubation. • 6) mRNA was spliced to obtain 5′ end mRNA single stranded sequence and binding with the probe.
20 μL of RNase H (5 U/mL) was added, incubated for 3 hours at 37° C., mixed once every half an hour. 100 μL of 1*BW solution was added, mixed well, and placed on the magnetic rack, and then the supernatant was removed. The washing step was repeated three times. Subsequently, 100 μL of deionized aqueous solution was added, mixed well, and placed on the magnetic rack, and the supernatant was then removed. The washing step was repeated three times. 100 μL of 75% methanol at 80° C. was added, and the mixture was incubated at 80° C. on a heater plate for 3 min, and placed on the magnetic rack, and the supernatant was then pipetted. The sample was dried using an evaporative centrifuge at room temperature for 45 min to 10 μL, and then resuspended in 50 μL of 100 μM EDTA solution in 1% MeOH for LC-MS analysis.
The capping efficiencies of mRNA with different cap analogs were determined by LC-MS, and some compounds of the results were shown in Table 4.

T7 RNA Polymerase, sequence (P00573 whole entry): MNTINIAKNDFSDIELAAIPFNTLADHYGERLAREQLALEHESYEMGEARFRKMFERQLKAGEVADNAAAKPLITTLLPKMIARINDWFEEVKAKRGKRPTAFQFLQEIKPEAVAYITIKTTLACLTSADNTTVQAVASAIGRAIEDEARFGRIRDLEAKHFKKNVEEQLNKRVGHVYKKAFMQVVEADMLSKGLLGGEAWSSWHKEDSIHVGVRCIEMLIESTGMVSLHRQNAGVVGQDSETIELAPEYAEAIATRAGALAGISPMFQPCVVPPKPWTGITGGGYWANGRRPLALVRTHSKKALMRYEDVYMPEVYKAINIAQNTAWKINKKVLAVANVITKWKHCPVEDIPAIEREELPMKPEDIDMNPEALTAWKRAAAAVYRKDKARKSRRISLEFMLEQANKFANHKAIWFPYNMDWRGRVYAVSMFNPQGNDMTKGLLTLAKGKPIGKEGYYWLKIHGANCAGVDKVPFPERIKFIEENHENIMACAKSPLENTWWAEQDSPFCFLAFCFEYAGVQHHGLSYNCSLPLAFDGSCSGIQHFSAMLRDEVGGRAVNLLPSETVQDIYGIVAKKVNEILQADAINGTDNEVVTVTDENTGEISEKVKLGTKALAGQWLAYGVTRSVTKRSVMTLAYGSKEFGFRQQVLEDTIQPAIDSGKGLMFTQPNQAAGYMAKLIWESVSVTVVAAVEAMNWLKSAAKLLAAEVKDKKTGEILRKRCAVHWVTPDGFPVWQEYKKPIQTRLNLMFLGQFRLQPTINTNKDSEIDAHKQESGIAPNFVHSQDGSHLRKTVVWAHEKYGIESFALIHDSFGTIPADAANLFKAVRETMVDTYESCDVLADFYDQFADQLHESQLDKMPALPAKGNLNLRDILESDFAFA

Row | Compound | Final product mass obtained from the 20 μL of mRNA transcription system [1] [µg] | Capping efficiency [2]
1 | CO[C@@H]1[C@H](OP(=O)([O-])OC[C@H]2O[C@@H](n3cnc4c(=O)[nH]c(N)nc43)[C@H](O)[C@@H]2O)[C@@H](COP(=O)(O)OP(=O)(O)OP(=O)(O)OC[C@H]2O[C@@H](n3c[n+](C)c4c(=O)[nH]c(N)nc43)[C@H](O)[C@@H]2CNC(C)=O)O[C@H]1n1cnc2c(N)ncnc21 [Compound 6] | 103 | A (100% > A ≥ 95%)
2 | CCOC[C@H]1[C@@H](O)[C@H](n2c[n+](C)c3c(=O)[nH]c(N)nc32)O[C@@H]1COP(=O)(O)OP(=O)(O)OP(=O)(O)OC[C@H]1O[C@@H](n2cnc3c(N)ncnc32)[C@H](OC)[C@@H]1OP(=O)(O)OC[C@H]1O[C@@H](n2cnc3c(=O)[nH]c(N)nc32)[C@H](O)[C@@H]1O [Compound 139] | 116 | A (100% > A ≥ 95%)
3 | CO[C@@H]1[C@H](OP(=O)([O-])OC[C@H]2O[C@@H](n3cnc4c(=O)[nH]c(N)nc43)[C@H](O)[C@@H]2O)[C@@H](COP(=O)(O)OP(=O)(O)OP(=O)(O)OC[C@H]2OC(n3c[n+](C)c4c(=O)[nH]c(N)nc43)[C@H](O)[C@@H]2CC(=O)N(C)C)O[C@H]1n1cnc2c(N)ncnc21 (stereo partly drawn) [Compound 4] | 78 | A (100% > A ≥ 95%)
4 | COCCOC[C@H]1[C@@H](O)[C@H](n2c[n+](C)c3c(=O)[nH]c(N)nc32)O[C@@H]1COP(=O)(O)OP(=O)(O)OP(=O)(O)OC[C@H]1O[C@@H](n2cnc3c(N)ncnc32)[C@H](OC)[C@@H]1OP(=O)(O)OC[C@H]1O[C@@H](n2cnc3c(=O)[nH]c(N)nc32)[C@H](O)[C@@H]1O [Compound 141] | 84 | A (100% > A ≥ 95%)
5 | CNC(=O)C[C@H]1[C@@H](O)[C@H](n2c[n+](C)c3c(=O)[nH]c(N)nc32)O[C@@H]1COP(=O)(O)OP(=O)(O)OP(=O)(O)OC[C@H]1O[C@@H](n2cnc3c(N)ncnc32)[C@H](OC)[C@@H]1OP(=O)(O)OC[C@H]1O[C@@H](n2cnc3c(=O)[nH]c(N)nc32)[C@H](O)[C@@H]1O [Compound 393] | 95 | A (100% > A ≥ 95%)
6 | COC[C@H]1[C@@H](O)[C@H](n2c[n+](C)c3c(=O)[nH]c(N)nc32)O[C@@H]1COP(=O)(O)CP(=O)(O)OP(=O)(O)OC[C@H]1O[C@@H](n2cnc3c(N)ncnc32)[C@H](OC)[C@@H]1OP(=O)(O)OC[C@H]1O[C@@H](n2cnc3c(=O)[nH]c(N)nc32)[C@H](O)[C@@H]1O [Compound 171] | 105 | –
7 | C=CCOC[C@H]1[C@@H](O)[C@H](n2c[n+](C)c3c(=O)[nH]c(N)nc32)O[C@@H]1COP(=O)(O)OP(=O)(O)OP(=O)(O)OC[C@H]1O[C@@H](n2cnc3c(N)ncnc32)[C@H](OC)[C@@H]1OP(=O)(O)OC[C@H]1O[C@@H](n2cnc3c(=O)[nH]c(N)nc32)[C@H](O)[C@@H]1O [Compound 33] | 103 | –
8 | CO[C@@H]1[C@H](OP(=O)([O-])OC[C@H]2O[C@@H](n3cnc4c(=O)[nH]c(N)nc43)[C@H](O)[C@@H]2O)[C@@H](CSP(=O)(O)OP(=O)(O)OP(=O)(O)OC[C@H]2O[C@@H](n3c[n+](C)c4c(=O)[nH]c(N)nc43)[C@H](O)[C@@H]2CNC(C)=O)O[C@H]1n1cnc2c(N)ncnc21 [Compound 561] | 108 | –
9 | CO[C@@H]1[C@H](OP(=O)([O-])OC[C@H]2O[C@@H](n3cnc4c(=O)[nH]c(N)nc43)[C@H](O)[C@@H]2O)[C@@H](COP(=O)(O)OP(=O)(O)OP(=O)(O)OC[C@H]2O[C@@H](n3c[n+](C)c4c(=O)[nH]c(N)nc43)[C@H](O)[C@@H]2CNC(=O)c2ccccc2)O[C@H]1n1cnc2c(N)ncnc21 [Compound 309] | 112 | –
10 | CNC(=O)OC[C@H]1[C@@H](O)[C@H](n2c[n+](C)c3c(=O)[nH]c(N)nc32)O[C@@H]1COP(=O)(O)OP(=O)(O)OP(=O)(O)OC[C@H]1O[C@@H](n2cnc3c(N)ncnc32)[C@H](OC)[C@@H]1OP(=O)([O-])OC[C@H]1O[C@@H](n2cnc3c(=O)[nH]c(N)nc32)[C@H](O)[C@@H]1O [Compound 631] | 105 | –
11 | COC[C@H]1[C@@H](O)[C@H](n2c[n+](C)c3c(=O)[nH]c(N)nc32)O[C@@H]1COP(=O)(O)OP(=O)(O)OP(=O)(O)OC[C@H]1O[C@@H](n2cnc3c(N)ncnc32)[C@H](OC)[C@@H]1OP(=O)([O-])OC[C@H]1O[C@@H](n2ccc(=O)[nH]c2=O)[C@H](O)[C@@H]1O [Compound 110] | 106 | –
12 | CO[C@@H]1[C@H](OP(=O)([O-])OC[C@H]2O[C@@H](n3ccc(=O)[nH]c3=O)[C@H](O)[C@@H]2O)[C@@H](COP(=O)(O)OP(=O)(O)OP(=O)(O)OC[C@H]2OC(n3c[n+](C)c4c(=O)[nH]c(N)nc43)[C@H](O)[C@@H]2CNC(C)=O)O[C@H]1n1cnc2c(N)ncnc21 (stereo partly drawn) [Compound 118] | 86 | –
13 | CO[C@@H]1[C@H](OP(=O)(O)OC[C@H]2O[C@@H](n3cnc4c(=O)[nH]c(N)nc43)[C@H](O)[C@@H]2O)[C@@H](COP(=O)(O)OP(=O)(O)OP(=O)(O)OC[C@H]2O[C@@H](n3c[n+](C)c4c(=O)[nH]c(N)nc43)[C@H](O)[C@@H]2CCNC(C)=O)O[C@H]1n1cnc2c(N)ncnc21 [Compound 319] | 102 | –
14 | CCCCCCNC(=O)C[C@H]1[C@@H](O)[C@H](n2c[n+](C)c3c(=O)[nH]c(N)nc32)O[C@@H]1COP(=O)(O)OP(=O)(O)OP(=O)(O)OC[C@H]1O[C@@H](n2cnc3c(N)ncnc32)[C@H](OC)[C@@H]1OP(=O)([O-])OC[C@H]1O[C@@H](n2cnc3c(=O)[nH]c(N)nc32)[C@H](O)[C@@H]1O [Compound 643] | 121 | –
15 | CO[C@@H]1[C@H](OP(=O)(O)OC[C@H]2O[C@@H](n3cnc4c(=O)[nH]c(N)nc43)[C@H](O)[C@@H]2O)[C@@H](COP(=O)(O)CP(=O)(O)OP(=O)(O)OC[C@H]2O[C@@H](n3c[n+](C)c4c(=O)[nH]c(N)nc43)[C@H](O)[C@@H]2CC(=O)N(C)C)O[C@H]1n1cnc2c(N)ncnc21 [Compound 421] | 98 | –
16 | COC[C@H]1[C@@H](OC)[C@H](n2c[n+](C)c3c(=O)[nH]c(N)nc32)O[C@@H]1COP(=O)(O)OP(=O)(O)OP(=O)(O)OC[C@H]1O[C@@H](n2cnc3c(N)ncnc32)[C@H](OC)[C@@H]1OP(=O)(O)OC[C@H]1O[C@@H](n2cnc3c(=O)[nH]c(N)nc32)[C@H](O)[C@@H]1O [Compound 637] | 88 | –
17 | COC[C@H]1[C@@H](O)[C@H](n2c[n+](C)c3c(=O)[nH]c(NC(C)C)nc32)O[C@@H]1COP(=O)(O)OP(=O)(O)OP(=O)(O)OC[C@H]1O[C@@H](n2cnc3c(N)ncnc32)[C@H](OC)[C@@H]1OP(=O)([O-])OC[C@H]1O[C@@H](n2cnc3c(=O)[nH]c(N)nc32)[C@H](O)[C@@H]1O [Compound 219] | 101 | –
18 | CO[C@@H]1[C@H](OP(=O)(O)OC[C@H]2O[C@@H](n3cnc4c(=O)[nH]c(N)nc43)[C@H](O)[C@@H]2O)[C@@H](COP(=O)(O)OP(=O)(O)OP(=O)(O)OC[C@H]2O[C@@H](n3c[n+](C)c4c(=O)[nH]c(N)nc43)[C@H](O)[C@@H]2CNC(=O)N(C)C)O[C@H]1n1cnc2c(N)ncnc21 [Compound 639] | 94 | –
19 | CNC(=O)CC[C@H]1[C@@H](O)[C@H](n2c[n+](C)c3c(=O)[nH]c(N)nc32)O[C@@H]1COP(=O)(O)OP(=O)(O)OP(=O)(O)OC[C@H]1O[C@@H](n2cnc3c(N)ncnc32)[C@H](OC)[C@@H]1OP(=O)(O)OC[C@H]1O[C@@H](n2cnc3c(=O)[nH]c(N)nc32)[C@H](O)[C@@H]1O [Compound 415] | 108 | –
